{"source": "patent US9757361B2", "about": "“Treatment of psoriasis and of other skin disorders associated with inhibition of differentiation of epidermal cells” (priority 2001, dated 2017)", "key": {"[1]": {"tested_on": "psoriatic lesions", "assay": "Topical treatment of psoriatic lesions of patients, clinical response and EES scoring", "type": "in vivo, human", "experimental": "The base cream used is made predominantly of heavy paraffin oil (10% w/w), vaseline (10% w/w), stearyl alcohol (8% w/w), polyoxylsteareth-40 (3% w/w) and water (68% w/w) but another suitably formulated base cream is also possible. […] The dosing and the application schedules followed for the lesion shown in FIG. 1A (psoriatic plaque on the dorsum of hand) are as follows: about 30 μl cream applied directly onto the lesion with the aid of a steel spatula every four hours for 24 hours. The cream-applied area is protected from accidental smearing and loss of the cream by covering with an aluminum applicator (FIG. 1 B). The dosing and the application schedules followed for the lesion shown in FIG. 1 D (psoriatic plaque at the scapular region) are as follows: about 30 μl cream applied directly onto the lesion every four hours for 24 hours. The cream-applied area is similarly covered against the smearing and loss of cream. Other treated psoriatic patients and lesions received from about 30 to 35 μl cream to each lesion at intervals of every 3 to 5 hours, as suitable and convenient. Lesions were similarly covered against the smearing and loss of cream. […] The corticosteroid used for treatment of the lesion shown in FIG. 4E was clobetasol 17-propionate in a final concentration of about 1.1 mM in base cream. […] Other corticosteroid molecules well known in the art are contemplated to be also suitable and capable of replacing the above-mentioned corticosteroid molecules at suitable concentrations (the suitable concentration ranges for corticosteroids are also known in the art).\n(§1) At intervals of 4 hours, approximately 30 μl cream was applied directly onto the lesion and the cream-applied region was covered against accidental smearing and loss of the cream (FIG. 1 B).\nTreatment was then discontinued and the lesion was followed-up.\nSeverity of psoriatic lesions can be assessed on a semi-quantitative scale by giving separate scores for the erythema, elevation and scaling of a lesion and then by summing up the scores to obtain a score called the EES score of that lesion (Bowman P. H. et al. (2002) J. Am. Acad. Dermatol. 46:907-913)."}, "[2]": {"tested_on": "psoriatic lesional skin", "assay": "Histopathological examination (H&E) of treated psoriatic lesional skin", "type": "in vivo, human", "details": "treated half of lesion, 24th hour", "experimental": "as §1\nFIG. 2A to FIG. 2W show histopathological and immunohistochemical examination findings of the tissue sections from the non-lesional skin, cyclopamine-treated lesional skin and non-treated lesional skin. Compared to the non-lesional skin (FIG. 2A), the non-treated lesional skin (FIG. 2B) is seen to display the typical histopathological signs of a psoriatic skin lesion mentioned above in the “Background of Invention”. Tissue sections from the cyclopamine-treated half of the original lesion reveal, however, dramatic improvement and regression to normalcy. These histopathological signs of regression to normalcy, exemplified in the FIG. 2C and FIG. 2D (examples from other cyclopamine-treated lesions and patients are given later) include the following: […]"}, "[3]": {"tested_on": "Ki-67 antigen", "details": "treated lesional skin, 24th hour", "description": "(§2) All antibodies and reagents for these immunohistochemical investigations were purchased from DAKO (Glostrup, Denmark); human Ki-67 antigen was detected by the monoclonal antibody M7187, human epithelial antigen was detected by the monoclonal antibody Ber-EP4, human CD4 antigen was detected by the monoclonal antibody M0716, human CD8 antigen was detected by the monoclonal antibody C8/144B. Besides the CD8 antigen, the monoclonal antibody C8/144B is known to recognize and bind to the cytokeratin 15 expressed by the hair stem cells (Kanitakis J. et al. (1999) Eur. J. Dermatol. 9:363-365). A DAKO “universal visualization kit” (LSAB2) employing biotinylated secondary antibody and peroxidase-conjugated streptavidin (pre-diluted to match the dilutions of DAKO-supplied primary antibodies) was used for the visualization reactions. All reaction conditions were as recommended by the manufacturer.\nThe Ki-67 antigen is a marker of the proliferating cells."}, "[4]": {"tested_on": "epithelial antigen (Ber-EP4)", "assay": "Immunohistochemical staining for the epithelial antigen with the Ber-EP4 antibody", "type": "in vivo, human", "details": "24th hour", "description": "(§3) All reaction conditions were as recommended by the manufacturer.\nThe monoclonal antibody Ber-EP4 is known to label the basal layer cells in normal epidermis. The outer root sheath of hair follicles, where the hair stem cells are thought to reside, are also known to be labeled with Ber-EP4."}, "[5]": {"tested_on": "cytokeratin 15", "assay": "Immunohistochemical staining with the C8/144B antibody (cytokeratin 15)", "details": "24th hour", "description": "as §2"}, "[6]": {"tested_on": "CD4 positive lymphocytes", "assay": "Immunohistochemical staining for the CD4 antigen in lesional skin", "type": "in vivo, human", "details": "treated half of lesion, 24th hour", "description": "as §3\nMoreover, conversion of the CD4(−) and CD8(−) lymphocytes to the CD4(+) and CD8(+) lymphocytes is viewed widely in the prior art as a requirement for their psoriatic plaque causing action [reviewed in Krueger J G (2002) Journal of the American Academy of Dermatology 46:1-23]."}, "[7]": {"tested_on": "CD44", "assay": "Immunohistochemical staining for the CD44 antigen", "type": "in vivo, human", "details": "lesional skin, 24th hour of treatment", "description": "What might be the key/proximal pathogenic event(s) intervened by cyclopamine? […] Both FIG. 4G and a closer-up view on FIG. 4H show decreased CD44 expression in the suprabasal and spinous layers in lesional epidermis in comparison to the situation in non-lesional epidermis."}, "[8]": {"tested_on": "EGFR", "assay": "Immunohistochemical staining for EGFR", "type": "in vivo, human", "details": "lesional skin treated with cyclopamine cream for 24 hours", "description": "Epidermal growth factor receptor (EGFR) is another marker known to display downregulation of expression with the differentiation of epidermal keratinocytes. […] Ordinarily EGFR expression is not detected immunohistochemically in the suprabasal layers of normal epidermis and the return of EGFR expression to the basal layer of epidermis is regarded to be one of the first signs of effective treatment of psoriasis by various modalities [King L E Jr. et al (1990) Journal of Investigative Dermatology 95: 10S-12S]. We evaluated the EGFR expression with anti-human EGFR antibody EGFR 113 (Novocastra Lab. Ltd., U.K.) and with immunohistochemical staining with peroxidase."}, "[9]": {"tested_on": "basal cell carcinoma cells", "details": "found earlier, PCT/TR 01/00027; cited from earlier work"}, "[10]": {"assay": "Follow-up of healthy / non-lesional skin after topical cyclopamine for adverse effects", "details": "for adverse effect of topical application on healthy / non-lesional skin: described concentration and dosing conditions"}}, "note": "“Also recorded” adds a separate entry of the source."}
{"smiles": "CC1=C2C[C@H]3[C@@H](CC=C4C[C@@H](O)CC[C@@]43C)[C@@H]2CC[C@]12O[C@@H]1C[C@H](C)CN[C@H]1[C@H]2C", "note": "[cyclopamine]", "values": [{"measurement": "day on which the lesion cleared / became undetectable", "setting": "[1]; 18 mM cyclopamine cream every fourth hour for 24 hours, then follow-up without treatment", "result": "> 8", "unit": "days"}, {"measurement": "days of continued treatment until the lesion cleared", "setting": "[1]; application every fourth hour until clearance", "result": "3 to 4", "unit": "days"}, {"measurement": "lesions subjected to single-day treatment that failed to clear completely", "setting": "[1]; human, in vivo", "result": "about 29%"}, {"measurement": "effectiveness on treated psoriatic lesions of different patients and body parts", "setting": "[1]; patients 29 to 57 years, lesions on extremities to trunk", "result": "highly effective on every psoriatic lesion for which it was used"}, {"measurement": "appearance of lesion site on the 14th day of follow-up", "setting": "[1]; plaque at left scapular region, 1 day of treatment, FIG. 1F", "result": "No lesion is visible, skin appears normal"}, {"measurement": "appearance of lesion after 1 day of treatment and 7 days of follow-up", "setting": "[1]; plaque at left scapular region, FIG. 1E", "result": "With the possible exception of slight erythema, lesion is no longer visible"}, {"measurement": "site of the treated lesion over a month of follow-up", "setting": "[1]; scapular plaque, 1 day of treatment", "result": "healthy-looking normal skin"}, {"measurement": "granular layer of epidermis", "setting": "[2]", "result": "Vigorous re-appearance"}, {"measurement": "hyperkeratosis and parakeratosis in the stratum corneum", "setting": "[2]", "result": "decreased but full normalization of this oldest epidermal layer did not yet happen"}, {"measurement": "inflammatory cells infiltrating the subepidermal dermis", "setting": "[2]", "result": "Disappearance from the cyclopamine-treated lesional skin of most of the inflammatory cells"}, {"measurement": "rete ridges and epidermal hyperplasia", "setting": "[2]", "result": "Return of the thickened and elongated rete ridges to normal levels and marked decrease of epidermal hyperplasia"}, {"measurement": "suprapapillary epidermis and papillary edema", "setting": "[2]", "result": "Return of the thinning of the suprapapillary epidermis to normalcy and the disappearance of papillary edema"}, {"measurement": "frequency and epidermal position of Ki-67 antigen positive cells", "setting": "[3]", "result": "Return of the Ki-67 displaying cells to the epidermal basal layer; also recorded: return of both the frequency and the epidermal position of the Ki-67 antigen positive cells to normalcy"}, {"measurement": "Ber-EP4 staining of basal cells of non-lesional skin after exposure", "setting": "[4]; non-lesional skin in psoriasis", "result": "remained Ber-EP4 positive"}, {"measurement": "Ber-EP4 labeling of epidermal basal layer cells of lesional skin", "setting": "[4]; treated lesional skin", "result": "cyclopamine-induced reversion to normalcy; also recorded: Epidermal basal layer cells are seen to display the epithelial antigen; also recorded: reverted to normalcy"}, {"measurement": "cytokeratin 15 in basal cells of non-lesional epidermis after exposure", "setting": "[5]; non-lesional skin", "result": "continued to be positive for the cytokeratin 15"}, {"measurement": "C8/144B (cytokeratin 15) labeling of epidermal basal layer cells of lesional skin", "setting": "[5]; treated lesional skin", "result": "consistent restoration of the lost cytokeratin 15 expression; also recorded: normalized and became labeled by the C8/144B antibody"}, {"measurement": "CD4 positive lymphocytes infiltrating the lesional skin", "setting": "[6]", "result": "Disappearance of the CD4 positive lymphocytes from the dermis of treated area; also recorded: largely cleared"}, {"measurement": "CD44 expression in lesional epidermis", "setting": "[7]", "result": "rapid induction and normalization of the CD44 expression; also recorded: increase and normalization of the expression of CD44"}, {"measurement": "EGFR expression in lesional epidermis", "setting": "[8]", "result": "rapidly normalized within 24 hours"}, {"measurement": "Ber-EP4 staining of basal cells of normal epidermis exposed under the same conditions", "setting": "[9]", "result": "continued to be Ber-EP4 positive"}, {"measurement": "effect on basal cell carcinoma cells (differentiation, Ber-EP4 staining)", "setting": "[9]", "result": "cause their differentiation and caused loss of their Ber-EP4 staining"}, {"measurement": "longest duration of follow-up of healthy skin with no adverse effect found", "setting": "[10]; at the time of writing of the invention", "result": "over 14 months"}, {"measurement": "adverse effect of topical application on healthy / non-lesional skin", "setting": "[10]", "result": "no adverse effect has been detected"}, {"measurement": "adverse effect of topical application on healthy / non-lesional skin", "setting": "[10]; listed as Cyclopamine", "result": "did not adversely affect the non-lesional skin; also recorded: no detectable adverse effect"}, {"measurement": "follow-up of skin sites of application showing healthy-looking normal skin and hair", "setting": "[10]; interval since filing of PCT/TR 02/00017", "result": "more than 31 months"}]}
